# ChEMBL document CHEMBL2406904, “Mitigation of cardiovascular toxicity in a series of CSF-1R inhibitors, and the identification of AZD7507” (Bioorg Med Chem Lett, 2013)
# Tests used:
# Type in all cases: ADME, organism-based
# [1] = Half life in rat at 10 mg/kg, po and 3 mg/kg, iv; conditions: in vivo
# [2] = Clearance in rat at 10 mg/kg, po; parameters: dose 10 mg/kg, route oral; conditions: in vivo
# [3] = Volume of distribution at steady state in rat at 10 mg/kg, po and 3 mg/kg, iv; conditions: in vivo, read-out: Vdss
# [4] = Oral bioavailability in rat at 10 mg/kg; conditions: in vivo
Compound,half-life [1],CL/F [2],Vd [3],bioavailability [4]
COc1cc2nnc(C(N)=O)c(Nc3ccc(C)cc3F)c2cc1N1CCN(CCO)CC1,3.1 h,7 mL/min/kg,2.2 L/kg,42%
COc1cc2nnc(C(N)=O)c(Nc3ccc(C)cc3F)c2cc1C1CCN(CCO)CC1,6.1 h,8 mL/min/kg,3.1 L/kg,100%
COc1cc2nnc(C(N)=O)c(Nc3ccc(C)cc3F)c2cc1N1C[C@@H](C)N[C@@H](C)C1,4.4 h,4 mL/min/kg,1.6 L/kg,61%
COc1cc2nnc(C(N)=O)c(Nc3ccc(C)cc3F)c2cc1N1CCN(C(=O)[C@@H](C)O)CC1,0.9 h,24 mL/min/kg,1.3 L/kg,53%
COCCN1CCN(c2cc3c(Nc4ccc(C)cc4F)c(C(N)=O)nnc3cc2OC)CC1,7.6 h,21 mL/min/kg,4.3 L/kg,3%
COc1cc2nnc(C(N)=O)c(Nc3ccc(C)cc3F)c2cc1N1CCC(OC)CC1,0.6 h,58 mL/min/kg,1.8 L/kg,21%
COc1cc2nnc(C(N)=O)c(Nc3ccc(C)cc3F)c2cc1N1CCOCC1,0.5 h,60 mL/min/kg,1.7 L/kg,25%
COc1cc2nnc(C(N)=O)c(Nc3ccc(C)cc3F)c2cc1N1CCN(S(C)(=O)=O)CC1,1.5 h,22 mL/min/kg,1.7 L/kg,3%
COc1cc2nnc(C(N)=O)c(Nc3ccc(C)cc3F)c2cc1N1CCCN(CCO)CC1,0.9 h,66 mL/min/kg,2.2 L/kg,4%

# Further lines, results first:
half-life [1],CL/F [2],Vd [3],bioavailability [4],Compound
2.5 h,17 mL/min/kg,3.8 L/kg,100%,COc1cc2nnc(C(N)=O)c(Nc3ccc(C)cc3F)c2cc1N1CCN(C(C)C)CC1
3.5 h,14 mL/min/kg,2.6 L/kg,100%,COc1cc2nnc(C(N)=O)c(Nc3ccc(C)cc3F)c2cc1C1CCN(C(C)C)CC1
0.9 h,34 mL/min/kg,2.2 L/kg,15%,COc1cc2nnc(C(N)=O)c(Nc3ccc(C)cc3F)c2cc1N1CCC(N(C)C)CC1
5.7 h,12 mL/min/kg,3.8 L/kg,100%,COc1cc2nnc(C(N)=O)c(Nc3ccc(C)cc3F)c2cc1N1CCN(C)CC1
